# Laboratory results from paper PMC9549500, “Inhibition of TRPC4 channel activity in colonic myocytes by tricyclic antidepressants disrupts colonic motility causing constipation” (Journal of Cellular and Molecular Medicine, 2022).
# Target: T1, TRPC4 (Mus musculus, UniProt Q9QUQ5)
# T1 construct: native channel in murine sigmoid colonic myocytes
# T1 sequence (Q9QUQ5 1-974): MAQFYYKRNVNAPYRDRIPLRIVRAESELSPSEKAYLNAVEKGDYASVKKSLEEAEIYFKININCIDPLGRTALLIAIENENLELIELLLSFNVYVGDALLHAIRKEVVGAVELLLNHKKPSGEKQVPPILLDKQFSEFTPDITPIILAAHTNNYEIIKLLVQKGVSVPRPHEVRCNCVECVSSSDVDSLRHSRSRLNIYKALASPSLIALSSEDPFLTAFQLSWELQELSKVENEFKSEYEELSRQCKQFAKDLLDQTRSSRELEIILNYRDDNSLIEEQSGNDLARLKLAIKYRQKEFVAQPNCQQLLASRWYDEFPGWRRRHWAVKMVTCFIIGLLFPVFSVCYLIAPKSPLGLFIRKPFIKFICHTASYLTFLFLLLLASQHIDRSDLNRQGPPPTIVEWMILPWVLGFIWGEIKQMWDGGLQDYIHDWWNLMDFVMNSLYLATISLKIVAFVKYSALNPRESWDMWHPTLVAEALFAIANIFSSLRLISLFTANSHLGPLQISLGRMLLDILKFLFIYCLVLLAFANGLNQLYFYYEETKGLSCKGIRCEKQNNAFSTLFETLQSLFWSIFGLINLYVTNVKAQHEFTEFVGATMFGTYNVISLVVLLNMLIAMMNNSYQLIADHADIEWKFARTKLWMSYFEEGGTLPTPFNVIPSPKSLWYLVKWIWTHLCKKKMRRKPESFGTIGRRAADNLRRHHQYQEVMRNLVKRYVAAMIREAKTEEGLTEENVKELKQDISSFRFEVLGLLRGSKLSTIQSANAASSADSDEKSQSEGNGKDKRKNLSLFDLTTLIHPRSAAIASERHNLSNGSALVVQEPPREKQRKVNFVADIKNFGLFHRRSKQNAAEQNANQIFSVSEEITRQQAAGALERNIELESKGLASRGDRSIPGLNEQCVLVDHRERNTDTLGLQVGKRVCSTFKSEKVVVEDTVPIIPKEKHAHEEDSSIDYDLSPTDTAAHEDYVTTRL
# Experiment: whole-cell patch clamp of CCh-evoked mIcat in murine colonic myocytes, […] Pico145; current absent in TRPC4-deficient mice
# Assay type: cell-based
smiles,measurement,value
Cn1c(=O)n(CCCO)c(=O)c2c1nc(Oc1cccc(OC(F)(F)F)c1)n2Cc1ccc(Cl)cc1 [Pico145],"whole-cell patch clamp of CCh-evoked mIcat in murine colonic myocytes, 100 nM Pi","The selective and potent antagonist of TRPC4, Pico145, completely blocked the CCh‐evoked current."
